The text below walks through data of PMC13126677 (Journal of Medicinal Chemistry, 2026).

SMILES strings stand for the structures. Converted amounts (≈) assume the structure as drawn. Some results are limits rather than exact numbers.

Series [1] relates to procoagulant activity of E. romani venom. Particulars: read-out: Coagulation assay EC50 E. romani; 10 ng E. romani venom, citrated bovine plasma; mean of n ≥ 3, range in brackets.
Description: (§1) This assay consists of preincubating venom (or venom vehicle control) at a species-specific dose with the compound of interest (or compound vehicle control), then adding citrated bovine plasma to the wells and activating the clotting cascade with calcium chloride. […] Compounds of interest were stamped onto 384-well plates at a volume of 0.5 μL and a concentration of 10 mM in 100% DMSO. Positive and negative control wells were stamped with 0.5 μL of 100% DMSO. To the test wells and the venom-only positive control wells, 10 μL of venom diluted to 1 μg/mL (E. romani) or 10 μg/mL (B. jararaca) in PBS was added, giving a final well amount of 10 ng (E. romani) or 100 ng (B. jararaca) per well. In the no venom negative control wells, 10 μL of PBS was added. The plates were then sealed, span briefly in a Platefuge and incubated at 37 °C for 25 min to allow venom-inhibitor interaction. While the plates were incubating, sufficient citrated bovine plasma (S0260, BioWest) to allow 20 μL/well was centrifuged at 3120 RCF for 5 min to remove any residual cellular debris and the supernatant was collected. The 384-well plates were removed from the incubator for 5 min to allow acclimation to room temperature, then 20 μL/well of 20 mM CaCl2 was added and immediately followed by the addition of 20 μL/well of centrifuged citrated bovine plasma, both via a Multidrop Combi reagent dispenser (5840330, Thermo Fisher Scientific). The plates were then read kinetically using an absorbance protocol on a CLARIOStar microplate reader at 595 nm for 60 min. […] Dose response plates were conducted identically and the % inhibition values at each dose were used to draw EC50 curves to estimate the EC50 value of each compound tested. All coagulation experiments were repeated independently a minimum of three times.
Series [2] relates to SVMP activity of Echis romani venom. Particulars: read-out: Inhibition of SVMP enzymatic activity EC50 ERO; E. romani venom; mean of n ≥ 3, range in brackets.
Description: (§2) Throughout our medicinal chemistry campaign, compounds were evaluated for their ability to inhibit enzymatic SVMP toxin activity in vitro using a previously described fluorescent-based substrate cleavage assay against five medically important viper venoms, namely Echis romani (Roman’s carpet viper, West Africa), Crotalus atrox (Western diamondback rattlesnake, North America), Calloselasma rhodostoma (Malayan pit viper, South East Asia), Bothrops jararaca (jararaca, South America) and Bitis arietans (puff adder, Africa).
(§3) Compounds of interest were stamped onto 384-well plates at a volume of 0.91 μL at a concentration of 1 mM in 100% DMSO (D2650, Sigma-Aldrich). Positive and negative control wells were stamped with 0.91 μL of 100% DMSO. To the test wells and the venom-only positive control wells, 15 μL of venom diluted to 0.066 μg/mL in PBS was added, giving a final amount of 1 μg/well. In the no venom negative control wells, 15 μL of PBS was added. The plates were then sealed, span briefly in a Platefuge (C2000, Benchmark Scientific) and incubated at 37 °C for 25 min to allow venom-inhibitor interaction. […] Dose response plates were conducted identically and the % inhibition values at each dose were used to draw EC50 curves to estimate the EC50 value of each compound tested. All SVMP experiments were repeated independently a minimum of three times.
Series [3] is described as follows: in vitro. To be noted: human, microsomes.
Description: (§4) The DMPK properties data described in the manuscript were measured via a high-throughput platform by AstraZeneca (United Kingdom).
In series [4] the test system is SVMP activity of Crotalus atrox venom. Particulars: read-out: Inhibition of SVMP enzymatic activity EC50 CAT; C. atrox venom; mean of n ≥ 3, range in brackets.
Description: as §2, §3
For series [5], the system named is SVMP activity of Bothrops jararaca venom. To be noted: read-out: Inhibition of SVMP enzymatic activity EC50 BJA; B. jararaca venom; mean of n ≥ 3, range in brackets.
Description: as §2, §3
In series [6] the test system is SVMP activity of Bitis arietans venom. Particulars: read-out: Inhibition of SVMP enzymatic activity EC50 BAR; B. arietans venom; mean of n ≥ 3, range in brackets.
Description: as §2, §3
The nature of series [7]: physchem. To be noted: aqueous medium at pH 7.4, pH 7.4, aqueous buffer.
Description: as §4
Series [8] has as its system procoagulant venom activity (E. romani and B. jararaca). Particulars: in words; coagulation assay.
Description: as §1
The nature of series [9]: in vitro. To be noted: rat, hepatocytes.
Description: as §4
In series [10] the test system is procoagulant activity of B. jararaca venom. Particulars: read-out: Coagulation assay EC50 B. jararaca; 100 ng B. jararaca venom, citrated bovine plasma; mean of n ≥ 3, range in brackets.
Description: as §1
The subject of series [11] is human plasma protein.
Description: as §4
The subject of series [12] is SVMP activity of Calloselasma rhodostoma venom. Particulars: read-out: Inhibition of SVMP enzymatic activity EC50 CRH; C. rhodostoma venom; mean of n ≥ 3, range in brackets.
Description: as §2, §3
Series [13] in a line: physchem. To be noted: organic solvent / aqueous solvent at pH 7.4, pH 7.4.
Description: as §4

For the molecule `COCCN1CCN(S(=O)(=O)c2ccc(-c3ccc(F)cc3)cc2)[C@@H](C(=O)NO)C1` [compound 30, (R)-1-((4′-Fluoro-[1,1′-biphenyl]-4-yl)sulfonyl)-N-hydroxy-4-(2-methoxyethyl)piperazine-2-carboxamide], the EC50 in series [1] was greater than 10000 nM; in [2], 18.5 nM; in series [4], 18.6 nM; in series [5], 27.1 nM; in [6], 1.8 nM; in series [10], greater than 10000 nM. Also, the EC50 in series [12] came out at 125 nM. In addition, the microsomal CLint in series [3] came to 7.1 µL/min/mg. The molecule also returned a solubility in series [7] of 468 µM (≈ 205 µg/mL). Besides, the “inhibition of procoagulant venom activity” value in [8] was “inactive”. Besides, the hepatocyte CLint in series [9] is greater than 300 µL/min/1e6 cells. The “Human Protein binding (%free)” value in series [11] was 14.0 %free. In addition, the logD in [13] came to 1.9.
Turning to `COCCN1CCN(S(=O)(=O)c2ccc(Oc3ccc(OC(F)(F)F)cc3)cc2)[C@@H](C(=O)NO)C1` [compound 16, (R)-N-Hydroxy-4-(2-methoxyethyl)-1-((4-(4-(trifluoromethoxy)phenoxy)phenyl)sulfonyl)piperazine-2-carboxamide], the EC50 in series [2] worked out at 15.9 nM; in [4], 76.9 nM; in [5], 856 nM; in [6], 27.8 nM; in series [12], 79.3 nM. The molecule also had a microsomal CLint in [3] of 8 µL/min/mg. For the same molecule, the concentration in solution in series [7] (solubility) came to 437 µM (≈ 227 µg/mL). For the same molecule, the hepatocyte CLint in series [9] was 65.6 µL/min/1e6 cells. Also, in series [11], the “Human Protein binding (%free)” value was 3.0 %free. In addition, the logD in [13] is 2.9.
On to `COCCN1CCN(S(=O)(=O)c2ccc(Oc3ccc(C(F)(F)F)cc3)cc2)[C@@H](C(=O)NO)C1` [compound 28, (R)-N-Hydroxy-4-(2-methoxyethyl)-1-((4-(4-(trifluoromethyl)phenoxy)phenyl)sulfonyl)piperazine-2-carboxamide], for which the EC50 in series [2] worked out at 7.6 nM; in series [4], 68.8 nM; in [5], 1510 nM; in series [6] it was 39.5 nM; in series [12] it was 95.9 nM. Also, in [3], the microsomal CLint worked out at 8.6 µL/min/mg. This molecule had a solubility in series [7] of 320 µM (≈ 161 µg/mL). Moreover, the intrinsic metabolic clearance (hepatocyte CLint) in series [9] was 22.8 µL/min/1e6 cells. The “Human Protein binding (%free)” value in series [11] stood at 3.4 %free. Besides, the logD in [13] was 2.7.
With `COc1ccc(S(=O)(=O)N2CCN(S(=O)(=O)c3c(C)noc3C)C[C@@H]2C(=O)NO)cc1` [compound 22, (R)-4-((3,5-Dimethylisoxazol-4-yl)sulfonyl)-N-hydroxy-1-((4-methoxyphenyl)sulfonyl)piperazine-2-carboxamide], the EC50 turned out to be 4850 nM in series [1]; 10.7 nM in series [2]; 35 nM in series [4]; 17.8 nM in series [5]; 9.8 nM in series [6]; 1090 nM in series [10]. Besides, in series [12], the EC50 worked out at 53.3 nM. Also, the microsomal CLint in [3] is 17.5 µL/min/mg. In series [7], this molecule gave a solubility greater than 1000 µM. The same molecule showed a hepatocyte CLint in series [9] of 44 µL/min/1e6 cells. Further, the “Human Protein binding (%free)” value in [11] was determined as 51 %free. The molecule also displayed a logD in series [13] of 0.7.
As for `COCCN1CCN(S(=O)(=O)c2ccc(OC)cc2)[C@@H](C(=O)NO)C1` [compound 20, (R)-N-Hydroxy-4-(2-methoxyethyl)-1-((4-methoxyphenyl)sulfonyl)piperazine-2-carboxamide], the EC50 was greater than 10000 nM in [1]; 61.9 nM in [2]; 68.9 nM in [4]; 86.2 nM in series [5]; 11.1 nM in series [6]; greater than 10000 nM in series [10]. Further, the EC50 in series [12] came out at 137 nM. Further, the microsomal CLint in series [3] is less than 3 µL/min/mg. Besides, in series [7], the solubility is greater than 1000 µM. Besides, the “inhibition of procoagulant venom activity” value in [8] is “inactive”. In series [9], this molecule yielded a hepatocyte CLint of 57.1 µL/min/1e6 cells. Also, the “Human Protein binding (%free)” value in series [11] was found to be 82 %free. In series [13], this molecule returned a logD of 0.1.
Regarding `COc1ccc(S(=O)(=O)N2CCNC[C@@H]2C(=O)NO)cc1.Cl` [compound 18, (R)-N-Hydroxy-1-((4-methoxyphenyl)sulfonyl)piperazine-2-carboxamide hydrochloride salt], the EC50 in [2] came to 47.6 nM; in series [4], 69.3 nM; in series [5], 56.1 nM; in series [6] it was 24.7 nM; in [12], 83.3 nM. In series [3], the microsomal CLint is less than 3 µL/min/mg. Besides, the solubility in series [7] came out at 231 µM. The molecule also had a hepatocyte CLint in [9] of 6.3 µL/min/1e6 cells. Moreover, in [11], the “Human Protein binding (%free)” value was determined as 91 %free. In [13], this molecule gave a logD of -0.2.
`COCCN1CCN(S(=O)(=O)c2ccc(Oc3ccc(OC)cc3)cc2)[C@@H](C(=O)NO)C1` [compound 17, (R)-N-Hydroxy-4-(2-methoxyethyl)-1-((4-(4-methoxyphenoxy)phenyl)sulfonyl)piperazine-2-carboxamide]: the EC50 was 1.1 nM in series [2]; 31.1 nM in series [4]; 209 nM in [5]; 10.4 nM in series [6]; 11.9 nM in [12]. This molecule also had a microsomal CLint in series [3] greater than 300 µL/min/mg. In series [7], this molecule returned a solubility of 236 µM (≈ 110 µg/mL). The hepatocyte CLint in series [9] came out at 209 µL/min/1e6 cells. The “Human Protein binding (%free)” value in series [11] is 6.4 %free. Further, the logD in series [13] amounted to 1.9.
`COc1ccc(S(=O)(=O)N2CCN(S(=O)(=O)c3ccc(OC)cc3)[C@@H](C(=O)NO)C2)cc1` [compound 21, (R)-N-Hydroxy-1,4-bis((4-methoxyphenyl)sulfonyl)piperazine-2-carboxamide]: the EC50 in [1] turned out to be 4590 nM; in [2], 15 nM; in series [4] it was 32.5 nM; in series [5], 18.2 nM; in [6], 10.6 nM; in [10], 3920 nM. Further, the EC50 in series [12] came out at 58.8 nM. The microsomal CLint in [3] stood at 10.2 µL/min/mg. The solubility in series [7] turned out to be 25 µM (≈ 12.1 µg/mL). In [9], the intrinsic clearance (hepatocyte CLint) was 199 µL/min/1e6 cells. The “Human Protein binding (%free)” value in series [11] was determined as 30 %free. Besides, the logD in series [13] is 1.
In the case of `COc1ccc(S(=O)(=O)N2CCN(S(C)(=O)=O)C[C@@H]2C(=O)NO)cc1` [compound 19, (R)-N-Hydroxy-1-((4-methoxyphenyl)sulfonyl)-4-(methylsulfonyl)piperazine-2-carboxamide], the concentration giving a half-maximal response (EC50) in series [1] was found to be 496 nM; in [2], 10.9 nM; in series [4] it was 45.3 nM; in series [5] it was 20 nM; in series [6], 14.3 nM; in series [10], 509 nM. For the same molecule, in series [12], the EC50 is 62.9 nM. The same molecule yielded a microsomal CLint in [3] of less than 3 µL/min/mg. The molecule also returned a solubility in series [7] of less than 1000 µM. In [9], the hepatocyte CLint was determined as 8.9 µL/min/1e6 cells. Besides, in [11], the “Human Protein binding (%free)” value is reported as 88 %free. The molecule also showed a log distribution coefficient (logD) in series [13] of -0.3.
Consider `COCCN1CCN(S(=O)(=O)c2ccc(Oc3ccc(Cl)cc3)cc2)[C@@H](C(=O)NO)C1` [compound 15, (R)-1-((4-(4-Chlorophenoxy)phenyl)sulfonyl)-N-hydroxy-4-(2-methoxyethyl)piperazine-2-carboxamide], for which the EC50 in series [2] stood at 7.9 nM; in [4], 47.9 nM; in series [5], 232 nM; in [6], 19.9 nM; in series [12] it was 22.5 nM. Also, the microsomal CLint in series [3] is less than 3 µL/min/mg. This molecule displayed a solubility in series [7] of 431 µM (≈ 203 µg/mL). Further, in series [9], the hepatocyte CLint is greater than 300 µL/min/1e6 cells. Further, the “Human Protein binding (%free)” value in series [11] was 2.3 %free. Moreover, the logD in series [13] is 2.4.
